Measurements reported in patent US4396613A, “23-Ester derivatives of DMT and method of using same” (Eli Lilly and Company, priority 1981, dated 1983).
≈ marks a conversion by molar mass, not a printed value.

Experiments:
Type in all cases: cell-based
[1] = system: Streptococcus Group D X66; experiment: standard agar-dilution assay (MIC); conditions: unit assumed
Experimental: (§1) The MIC's in Table II were determined by standard agar-dilution assays. The MIC's in Table III were obtained using a conventional broth-dilution microtiter test.

Streptococcus Group 9960 = experiment: standard agar-dilution assay (MIC); conditions: unit assumed
Experimental: as §1

[2] = system: Haemophilus influenzae Holt; experiment: standard agar-dilution assay (MIC); conditions: ampicillin-sensitive strain, unit assumed
Experimental: as §1

[3] = system: Staphylococcus epidermidis EPI2; experiment: standard agar-dilution assay (MIC); conditions: unit assumed
Experimental: as §1

[4] = system: Staphylococcus aureus X1.1; experiment: standard agar-dilution assay (MIC); conditions: unit assumed
Experimental: as §1

[5] = system: Haemophilus influenzae R252; experiment: standard agar-dilution assay (MIC); conditions: Haemophilus influenzae R252, ampicillin-resistant strain, unit assumed
Experimental: as §1

[6] = system: Staphylococcus epidermidis EPI1; experiment: standard agar-dilution assay (MIC); conditions: unit assumed
Experimental: as §1

[7] = system: Staphylococcus aureus S13E; experiment: standard agar-dilution assay (MIC); conditions: unit assumed
Experimental: as §1

[8] = system: Streptococcus pyogenes C203; experiment: standard agar-dilution assay (MIC); conditions: unit assumed
Experimental: as §1

[9] = system: Staphylococcus aureus V41; experiment: standard agar-dilution assay (MIC); conditions: Staphylococcus aureus V41, penicillin-resistant strain, unit assumed
Experimental: as §1
^b Penicillinresistant strain

Staphylococcus aureus = experiment: conventional broth-dilution microtiter test (MIC); conditions: unit assumed
Experimental: as §1

Streptococcus sp. 80 = experiment: conventional broth-dilution microtiter test (MIC); conditions: unit assumed
Experimental: as §1

[10] = system: Pasteurella multocida 17E; experiment: conventional broth-dilution microtiter test (MIC); conditions: bovine isolate, unit assumed
Experimental: as §1

Mycoplasma synoviae = experiment: conventional broth-dilution microtiter test (MIC); conditions: unit assumed
Experimental: as §1

[11] = system: Pasteurella multocida 60A; experiment: conventional broth-dilution microtiter test (MIC); conditions: avian isolate, unit assumed
Experimental: as §1

Mycoplasma gallisepticum = experiment: conventional broth-dilution microtiter test (MIC); conditions: unit assumed
Experimental: as §1

Mycoplasma hyorhinis = experiment: conventional broth-dilution microtiter test (MIC); conditions: unit assumed
Experimental: as §1

[12] = system: Streptococcus pneumoniae Park I; conditions: agar dilution, unit assumed
Experimental: as §1

[13] = system: Staphylococcus aureus X400; experiment: standard agar-dilution assay (MIC); conditions: Staphylococcus aureus X400, methicillin-resistant strain, unit assumed
Experimental: as §1
^c Methicillinresistant-strain

Row | Structure (SMILES) | MIC [1] [µg/mL] | MIC (Streptococcus Group 9960) [µg/mL] | MIC [2] [µg/mL] | MIC [3] [µg/mL] | MIC [4] [µg/mL] | MIC [5] [µg/mL] | MIC [6] [µg/mL] | MIC [7] [µg/mL] | MIC [8] [µg/mL] | MIC [9] [µg/mL] | MIC (Staphylococcus aureus) [µg/mL] | MIC (Streptococcus sp. 80) [µg/mL] | MIC [10] [µg/mL] | MIC (Mycoplasma synoviae) [µg/mL] | MIC [11] [µg/mL] | MIC (Mycoplasma gallisepticum) [µg/mL] | MIC (Mycoplasma hyorhinis) [µg/mL] | MIC [12] [µg/mL] | MIC [13] [µg/mL]
1 | CCC1OC(=O)CC(O)C(C)C(OC2OC(C)C(OC3CC(C)(O)C(O)C(C)O3)C(N(C)C)C2OC(C)=O)C(CC=O)CC(C)C(=O)C=CC(C)=CC1COC(=O)C(C)(C)C (centres unmarked) [Compound 8] | 0.5 (≈ 0.576 µM) | 0.5 (≈ 0.576 µM) | 16 (≈ 18.4 µM) | 1 (≈ 1.15 µM) | 0.5 (≈ 0.576 µM) | 4 (≈ 4.61 µM) | 0.5 (≈ 0.576 µM) | 0.5 (≈ 0.576 µM) | 0.25 (≈ 0.288 µM) | 0.5 (≈ 0.576 µM) | 3.12 (≈ 3.59 µM) | > 0.78 | 12.5 (≈ 14.4 µM) | 0.39 (≈ 0.449 µM) | 12.5 (≈ 14.4 µM) | 0.39 (≈ 0.449 µM) | 3.12 (≈ 3.59 µM) | 0.06 (≈ 0.0691 µM) | 1 (≈ 1.15 µM)
2 | CCC1OC(=O)CC(O)C(C)C(OC2OC(C)C(OC3CC(C)(O)C(O)C(C)O3)C(N(C)C)C2OC(C)=O)C(CC=O)CC(C)C(=O)C=CC(C)=CC1COC(=O)OC (centres unmarked) [Compound 24] | 0.5 (≈ 0.594 µM) | 0.5 (≈ 0.594 µM) | 16 (≈ 19 µM) | 0.5 (≈ 0.594 µM) | 0.5 (≈ 0.594 µM) | 8 (≈ 9.5 µM) | 0.5 (≈ 0.594 µM) | 0.5 (≈ 0.594 µM) | 0.25 (≈ 0.297 µM) | 0.5 (≈ 0.594 µM) | 3.12 (≈ 3.71 µM) | 0.78 (≈ 0.926 µM) | 6.25 (≈ 7.42 µM) | 0.78 (≈ 0.926 µM) | 12.5 (≈ 14.8 µM) | 0.78 (≈ 0.926 µM) | 1.56 (≈ 1.85 µM) | 0.06 (≈ 0.0713 µM) | 0.5 (≈ 0.594 µM)
3 | CCC1OC(=O)CC(O)C(C)C(OC2OC(C)C(OC3CC(C)(O)C(O)C(C)O3)C(N(C)C)C2OC(C)=O)C(CC=O)CC(C)C(=O)C=CC(C)=CC1COC(=O)Cc1cc(OC)ccc1OC (centres unmarked) [Compound 20] | 0.5 (≈ 0.52 µM) | 2 (≈ 2.08 µM) | 32 (≈ 33.3 µM) | 0.5 (≈ 0.52 µM) | 0.5 (≈ 0.52 µM) | 16 (≈ 16.6 µM) | 0.5 (≈ 0.52 µM) | 0.5 (≈ 0.52 µM) | 0.25 (≈ 0.26 µM) | 0.5 (≈ 0.52 µM) | 0.78 (≈ 0.811 µM) | 0.195 (≈ 0.203 µM) | 12.5 (≈ 13 µM) | 0.39 (≈ 0.405 µM) | 25 (≈ 26 µM) | 0.195 (≈ 0.203 µM) | 1.56 (≈ 1.62 µM) | 0.06 (≈ 0.0624 µM) | 0.5 (≈ 0.52 µM)
4 | CCC1OC(=O)CC(O)C(C)C(OC2OC(C)C(OC3CC(C)(O)C(O)C(C)O3)C(N(C)C)C2OC(C)=O)C(CC=O)CC(C)C(=O)C=CC(C)=CC1COC(=O)n1ccnc1 (centres unmarked) [Compound 21] | 2 (≈ 2.28 µM) | 1 (≈ 1.14 µM) | 16 (≈ 18.2 µM) | 2 (≈ 2.28 µM) | 1 (≈ 1.14 µM) | 8 (≈ 9.11 µM) | 2 (≈ 2.28 µM) | 1 (≈ 1.14 µM) | 0.5 (≈ 0.569 µM) | 2 (≈ 2.28 µM) | 6.25 (≈ 7.12 µM) | 0.78 (≈ 0.888 µM) | 12.5 (≈ 14.2 µM) | 0.78 (≈ 0.888 µM) | 12.5 (≈ 14.2 µM) | 0.78 (≈ 0.888 µM) | 1.56 (≈ 1.78 µM) | 0.125 (≈ 0.142 µM) | 2 (≈ 2.28 µM)
5 | CCC(=O)OC1C(OC2C(CC=O)CC(C)C(=O)C=CC(C)=CC(COC(C)=O)C(CC)OC(=O)CC(O)C2C)OC(C)C(OC2CC(C)(O)C(O)C(C)O2)C1N(C)C (centres unmarked) [Compound 6, 23-O-Acetyl-2'-O-propionyl-DMT] | 1 (≈ 1.19 µM) | 1 (≈ 1.19 µM) | 16 (≈ 19 µM) | 1 (≈ 1.19 µM) | 0.5 (≈ 0.595 µM) | 16 (≈ 19 µM) | 1 (≈ 1.19 µM) | 1 (≈ 1.19 µM) | 0.5 (≈ 0.595 µM) | 0.5 (≈ 0.595 µM) | 0.78 (≈ 0.929 µM) | 0.39 (≈ 0.464 µM) | 6.25 (≈ 7.44 µM) | 0.195 (≈ 0.232 µM) | 12.5 (≈ 14.9 µM) | 0.39 (≈ 0.464 µM) | 0.78 (≈ 0.929 µM) | 0.125 (≈ 0.149 µM) | 2 (≈ 2.38 µM)
6 | CCC1OC(=O)CC(O)C(C)C(OC2OC(C)C(OC3CC(C)(O)C(O)C(C)O3)C(N(C)C)C2O)C(CC=O)CC(C)C(=O)C=CC(C)=CC1COC(=O)Cc1ccccc1 (centres unmarked) [Compound 10, 23-O-Phenylacetyl-DMT] | 0.5 (≈ 0.581 µM) | 0.25 (≈ 0.291 µM) | 2 (≈ 2.33 µM) | 0.5 (≈ 0.581 µM) | 0.25 (≈ 0.291 µM) | 2 (≈ 2.33 µM) | 0.5 (≈ 0.581 µM) | 0.25 (≈ 0.291 µM) | 0.125 (≈ 0.145 µM) | 0.5 (≈ 0.581 µM) | 0.78 (≈ 0.907 µM) | 0.097 (≈ 0.113 µM) | 1.56 (≈ 1.81 µM) | ≤ 0.048 | 3.12 (≈ 3.63 µM) | ≤ 0.048 | 1.56 (≈ 1.81 µM) | 0.03 (≈ 0.0349 µM) | 0.5 (≈ 0.581 µM)
7 | CCC1OC(=O)CC(O)C(C)C(OC2OC(C)C(OC3CC(C)(O)C(O)C(C)O3)C(N(C)C)C2O)C(CC=O)CC(C)C(=O)C=CC(C)=CC1COC(=O)N1CCC(O)CC1 (centres unmarked) [Compound 28] | 1 (≈ 1.15 µM) | 1 (≈ 1.15 µM) | 8 (≈ 9.21 µM) | 2 (≈ 2.3 µM) | 1 (≈ 1.15 µM) | 16 (≈ 18.4 µM) | 0.5 (≈ 0.575 µM) | 2 (≈ 2.3 µM) | 0.25 (≈ 0.288 µM) | 1 (≈ 1.15 µM) | 1.56 (≈ 1.8 µM) | 0.39 (≈ 0.449 µM) | 12.5 (≈ 14.4 µM) | 0.78 (≈ 0.898 µM) | 25 (≈ 28.8 µM) | 0.39 (≈ 0.449 µM) | 0.78 (≈ 0.898 µM) | 0.125 (≈ 0.144 µM) | 2 (≈ 2.3 µM)
8 | CCC1OC(=O)CC(O)C(C)C(OC2OC(C)C(OC3CC(C)(O)C(O)C(C)O3)C(N(C)C)C2OC(C)=O)C(CC=O)CC(C)C(=O)C=CC(C)=CC1COC(=O)C=Cc1ccccc1 (centres unmarked) [Compound 11] | 2 (≈ 2.19 µM) | 2 (≈ 2.19 µM) | 128 (≈ 140 µM) | 4 (≈ 4.38 µM) | 1 (≈ 1.09 µM) | 128 (≈ 140 µM) | 1 (≈ 1.09 µM) | 1 (≈ 1.09 µM) | 1 (≈ 1.09 µM) | 0.5 (≈ 0.547 µM) | 1.56 (≈ 1.71 µM) | 0.78 (≈ 0.853 µM) | 12.5 (≈ 13.7 µM) | 3.12 (≈ 3.41 µM) | > 50 | 0.39 (≈ 0.427 µM) | 6.25 (≈ 6.84 µM) | 0.25 (≈ 0.273 µM) | 2 (≈ 2.19 µM)
